Laboratory results: ChEMBL document CHEMBL1795286, “A concise synthesis and antimicrobial activities of 3-polyamino-23,24-bisnorcholanes as steroid-polyamine conjugates” (2011)

Tests used:
Escherichia coli [1] = assay: Antimicrobial activity against Escherichia coli ATCC 10536 after 18 hrs by twofold agar dilution method; format: functional; conditions: ATCC 10536, 18 h
Morganella morganii = assay: Antimicrobial activity against Morganella morganii 1375E after 18 hrs by twofold agar dilution method; format: functional
Enterococcus faecalis = assay: Antimicrobial activity against Enterococcus faecalis ATCC 29212 after 18 hrs by twofold agar dilution method; format: functional; conditions: ATCC 29212, 18 h
Staphylococcus aureus [2] = assay: Antimicrobial activity against Staphylococcus aureus ATCC 25923 after 18 hrs by twofold agar dilution method; format: functional; conditions: ATCC 25923, 18 h
Klebsiella aerogenes = assay: Antimicrobial activity against Klebsiella aerogenes harboring beta-lactamase SHV-1 1976E mutant after 18 hrs by twofold agar dilution method; format: functional
Enterobacter cloacae [3] = assay: Antimicrobial activity against Enterobacter cloacae ATCC 27508 after 18 hrs by twofold agar dilution method; format: functional; conditions: ATCC 27508, 18 h
Bacillus licheniformis = assay: Antimicrobial activity against Bacillus licheniformis EMR after 18 hrs by twofold agar dilution method; format: functional
Pseudomonas aeruginosa = assay: Antimicrobial activity against Pseudomonas aeruginosa 6065Y after 18 hrs by twofold agar dilution method; format: functional
Klebsiella pneumoniae = assay: Antimicrobial activity against Klebsiella pneumoniae 2011E after 18 hrs by twofold agar dilution method; format: functional
[4] = system: Staphylococcus epidermidis; assay: Antimicrobial activity against Staphylococcus epidermidis 887E after 18 hrs by twofold agar dilution method; format: functional; conditions: read-out: MIC
Citrobacter koseri = assay: Antimicrobial activity against Citrobacter diversus 2046 after 18 hrs by twofold agar dilution method; format: functional; conditions: Citrobacter koseri, 2046, 18 h
Staphylococcus aureus [5] = assay: Antimicrobial activity against Staphylococcus aureus 241 after 18 hrs by twofold agar dilution method; format: functional; conditions: Staphylococcus aureus, 241, 18 h; read-out: MIC
Escherichia coli [6] = assay: Antimicrobial activity against Escherichia coli ATCC 25922 after 18 hrs by twofold agar dilution method; format: functional; conditions: ATCC 25922, 18 h
[7] = system: Acinetobacter calcoaceticus; assay: Antimicrobial activity against Acinetobacter calcoaceticus ATCC 15473 after 18 hrs by twofold agar dilution method; format: functional; conditions: ATCC 15473, 18 h
Moraxella catarrhalis [8] = assay: Antimicrobial activity against Moraxella catarrhalis C2431 after 18 hrs by twofold agar dilution method; format: functional; conditions: C2431, 18 h
Staphylococcus aureus [9] = assay: Antimicrobial activity against Staphylococcus aureus giorgio after 18 hrs by twofold agar dilution method; format: functional
Serratia marcescens [10] = assay: Antimicrobial activity against Serratia marcescens ATCC 27117 after 18 hrs by twofold agar dilution method; format: functional; conditions: ATCC 27117, 18 h
Serratia marcescens [11] = assay: Antimicrobial activity against Serratia marcescens 1826E after 18 hrs by twofold agar dilution method; format: functional
Escherichia coli [12] = assay: Antimicrobial activity against Escherichia coli 851E after 18 hrs by twofold agar dilution method; format: functional
Citrobacter freundii = assay: Antimicrobial activity against Citrobacter freundii 8090 after 18 hrs by twofold agar dilution method; format: functional; conditions: Citrobacter freundii, 8090, 18 h
Bacillus subtilis = assay: Antimicrobial activity against Bacillus subtilis ATCC 6633 after 18 hrs by twofold agar dilution method; format: functional; conditions: ATCC 6633, 18 h
Bacillus cereus = assay: Antimicrobial activity against Bacillus cereus ATCC 27348 after 18 hrs by twofold agar dilution method; format: functional; conditions: ATCC 27348, 18 h
Moraxella catarrhalis [13] = assay: Antimicrobial activity against Moraxella catarrhalis 25240 after 18 hrs by twofold agar dilution method; format: functional; conditions: Moraxella catarrhalis, 25240, 18 h
Staphylococcus aureus [14] = assay: Antimicrobial activity against Staphylococcus aureus ATCC 6538P after 18 hrs by twofold agar dilution method; format: functional
Staphylococcus aureus [15] = assay: Antimicrobial activity against Staphylococcus aureus 77 after 18 hrs by twofold agar dilution method; format: functional; conditions: Staphylococcus aureus, 77, 18 h
Salmonella typhimurium [16] = assay: Antimicrobial activity against Salmonella typhimurium ATCC 13311 after 18 hrs by twofold agar dilution method; format: functional, Salmonella enterica subsp. enterica serovar Typhimurium; conditions: Salmonella enterica, ATCC 13311, 18 h
Enterobacter cloacae [17] = assay: Antimicrobial activity against Enterobacter cloacae P99 after 18 hrs by twofold agar dilution method; format: functional; conditions: P99, 18 h
Micrococcus luteus = assay: Antimicrobial activity against Micrococcus luteus ATCC 9341 after 18 hrs by twofold agar dilution method; format: functional; conditions: ATCC 9341, 18 h, read-out: MIC
Proteus vulgaris = assay: Antimicrobial activity against Proteus vulgaris 6059 after 18 hrs by twofold agar dilution method; format: functional; conditions: Proteus vulgaris, 6059, 18 h
Salmonella typhimurium [18] = assay: Antimicrobial activity against Salmonella Typhimurium ATCC 14028 after 18 hrs by two-fold agar dilution method; format: functional, Salmonella enterica subsp. enterica serovar Typhimurium; conditions: Salmonella enterica, ATCC 14028, 18 h
Escherichia coli [19] = assay: Antimicrobial activity against Escherichia coli 3190Y after 18 hrs by twofold agar dilution method; format: functional

Structure (SMILES) | MIC (Morganella morganii) | MIC (Klebsiella aerogenes) | MIC (Enterobacter cloacae [3]) | MIC (Pseudomonas aeruginosa) | MIC (Klebsiella pneumoniae) | MIC [4] | MIC (Citrobacter koseri) | MIC (Staphylococcus aureus [5]) | MIC [7] | MIC (Staphylococcus aureus [9]) | MIC (Serratia marcescens [10]) | MIC (Serratia marcescens [11]) | MIC (Escherichia coli [12]) | MIC (Citrobacter freundii) | MIC (Bacillus subtilis) | MIC (Staphylococcus aureus [14]) | MIC (Salmonella typhimurium [16]) | MIC (Enterobacter cloacae [17]) | MIC (Micrococcus luteus) | MIC (Proteus vulgaris) | also measured
C[C@H](CO)[C@H]1CC[C@H]2[C@@H]3CC[C@H]4C[C@H](NCCCNCCCCNCCCN)CC[C@]4(C)[C@H]3CC[C@]12C.Cl.Cl.Cl.Cl | > 32 µg/mL | > 32 µg/mL | > 32 µg/mL | > 32 µg/mL | > 32 µg/mL | 8 µg/mL | > 32 µg/mL | 4 µg/mL | > 32 µg/mL | 16 µg/mL | > 32 µg/mL | > 32 µg/mL | > 32 µg/mL | > 32 µg/mL | 8 µg/mL | 4 µg/mL | > 32 µg/mL | > 32 µg/mL | 16 µg/mL | > 32 µg/mL | MIC (Escherichia coli [1]; read-out: MIC): < 32 µg/mL; MIC (Enterococcus faecalis; read-out: MIC): < 32 µg/mL; MIC (Staphylococcus aureus [2]; read-out: MIC): 16 µg/mL; MIC (Bacillus licheniformis; read-out: MIC): 32 µg/mL; MIC (Escherichia coli [6]): > 32 µg/mL; MIC (Moraxella catarrhalis [8]; read-out: MIC): < 32 µg/mL; MIC (Bacillus cereus; read-out: MIC): < 32 µg/mL; MIC (Moraxella catarrhalis [13]; read-out: MIC): < 32 µg/mL; MIC (Staphylococcus aureus [15]; read-out: MIC): 16 µg/mL; MIC (Salmonella typhimurium [18]): > 32 µg/mL; MIC (Escherichia coli [19]; read-out: MIC): < 32 µg/mL
C[C@H](CO)[C@H]1CC[C@H]2[C@@H]3CC[C@H]4C[C@@H](NCCCNCCCCNCCCN)CC[C@]4(C)[C@H]3CC[C@]12C.Cl.Cl.Cl.Cl | > 32 µg/mL | > 32 µg/mL | > 32 µg/mL | > 32 µg/mL | > 32 µg/mL | 32 µg/mL | > 32 µg/mL | 8 µg/mL | > 32 µg/mL | 32 µg/mL | > 32 µg/mL | > 32 µg/mL | > 32 µg/mL | > 32 µg/mL | 8 µg/mL | 8 µg/mL | > 32 µg/mL | > 32 µg/mL | 32 µg/mL | > 32 µg/mL | MIC (Escherichia coli [1]; read-out: MIC): < 32 µg/mL; MIC (Enterococcus faecalis; read-out: MIC): < 32 µg/mL; MIC (Staphylococcus aureus [2]; read-out: MIC): 32 µg/mL; MIC (Bacillus licheniformis; read-out: MIC): 32 µg/mL; MIC (Escherichia coli [6]): > 32 µg/mL; MIC (Moraxella catarrhalis [8]; read-out: MIC): < 32 µg/mL; MIC (Bacillus cereus; read-out: MIC): < 32 µg/mL; MIC (Moraxella catarrhalis [13]; read-out: MIC): < 32 µg/mL; MIC (Staphylococcus aureus [15]): > 32 µg/mL; MIC (Salmonella typhimurium [18]): > 32 µg/mL; MIC (Escherichia coli [19]): > 32 µg/mL
C[C@H](CO)[C@H]1CC[C@H]2[C@@H]3[C@H](O)C[C@H]4C[C@@H](NCCCNCCCCN)CC[C@]4(C)[C@H]3CC[C@]12C.Cl.Cl.Cl | > 32 µg/mL | > 32 µg/mL | > 32 µg/mL | > 32 µg/mL | > 32 µg/mL | 32 µg/mL | > 32 µg/mL | 16 µg/mL | > 32 µg/mL | 32 µg/mL | > 32 µg/mL | > 32 µg/mL | > 32 µg/mL | > 32 µg/mL | 16 µg/mL | 16 µg/mL | > 32 µg/mL | > 32 µg/mL | 16 µg/mL | > 32 µg/mL | MIC (Escherichia coli [1]): > 32 µg/mL; MIC (Enterococcus faecalis): > 32 µg/mL; MIC (Staphylococcus aureus [2]; read-out: MIC): < 32 µg/mL; MIC (Bacillus licheniformis; read-out: MIC): < 32 µg/mL; MIC (Escherichia coli [6]; read-out: MIC): < 32 µg/mL; MIC (Moraxella catarrhalis [8]): > 32 µg/mL; MIC (Bacillus cereus): > 32 µg/mL; MIC (Moraxella catarrhalis [13]; read-out: MIC): < 32 µg/mL; MIC (Staphylococcus aureus [15]; read-out: MIC): 16 µg/mL; MIC (Salmonella typhimurium [18]): > 32 µg/mL; MIC (Escherichia coli [19]; read-out: MIC): < 32 µg/mL
C[C@H](CO)[C@H]1CC[C@H]2[C@@H]3CC[C@@H]4C[C@@H](NCCCNCCCCNCCCN)CC[C@]4(C)[C@H]3CC[C@]12C.Cl.Cl.Cl.Cl | > 32 µg/mL | > 32 µg/mL | > 32 µg/mL | > 32 µg/mL | > 32 µg/mL | 4 µg/mL | > 32 µg/mL | 2 µg/mL | > 32 µg/mL | 4 µg/mL | > 32 µg/mL | > 32 µg/mL | > 32 µg/mL | > 32 µg/mL | 2 µg/mL | 1 µg/mL | > 32 µg/mL | > 32 µg/mL | 2 µg/mL | > 32 µg/mL | MIC (Escherichia coli [1]; read-out: MIC): 32 µg/mL; MIC (Enterococcus faecalis; read-out: MIC): 32 µg/mL; MIC (Staphylococcus aureus [2]; read-out: MIC): 16 µg/mL; MIC (Bacillus licheniformis): > 32 µg/mL; MIC (Escherichia coli [6]; read-out: MIC): 32 µg/mL; MIC (Moraxella catarrhalis [8]): > 32 µg/mL; MIC (Bacillus cereus; read-out: MIC): < 32 µg/mL; MIC (Moraxella catarrhalis [13]): > 32 µg/mL; MIC (Staphylococcus aureus [15]; read-out: MIC): 2 µg/mL; MIC (Salmonella typhimurium [18]): > 32 µg/mL; MIC (Escherichia coli [19]; read-out: MIC): 32 µg/mL
C[C@H](CO)[C@H]1CC[C@H]2[C@@H]3[C@H](F)C[C@H]4C[C@@H](NCCCNCCCCN)CC[C@]4(C)[C@H]3CC[C@]12C.Cl.Cl.Cl | > 32 µg/mL | > 32 µg/mL | > 32 µg/mL | > 32 µg/mL | > 32 µg/mL | 16 µg/mL | > 32 µg/mL | 8 µg/mL | > 32 µg/mL | 8 µg/mL | > 32 µg/mL | > 32 µg/mL | > 32 µg/mL | > 32 µg/mL | 16 µg/mL | 8 µg/mL | > 32 µg/mL | > 32 µg/mL | 16 µg/mL | > 32 µg/mL | MIC (Escherichia coli [1]): > 32 µg/mL; MIC (Enterococcus faecalis; read-out: MIC): < 32 µg/mL; MIC (Staphylococcus aureus [2]): > 32 µg/mL; MIC (Bacillus licheniformis; read-out: MIC): < 32 µg/mL; MIC (Escherichia coli [6]): > 32 µg/mL; MIC (Moraxella catarrhalis [8]): > 32 µg/mL; MIC (Bacillus cereus): > 32 µg/mL; MIC (Moraxella catarrhalis [13]; read-out: MIC): 32 µg/mL; MIC (Staphylococcus aureus [15]; read-out: MIC): 8 µg/mL; MIC (Salmonella typhimurium [18]): > 32 µg/mL; MIC (Escherichia coli [19]; read-out: MIC): < 32 µg/mL
